# Reference: ChEMBL document CHEMBL1221172, “Identification of a specific inhibitor of the histone methyltransferase SU(VAR)3-9” (Nat Chem Biol, 2005)
# The source made the active and inactive calls. No cut-off for these calls is given here.
# Assays:
# SL-2 [1] = assay: Cytotoxicity against Drosophila melanogaster SL-2 cells seeded at high density assessed as growth retardation for 24 to 48 hrs up to 0.5 uM; assay type: cell-based
# SL-2 [2] = assay: Cytotoxicity against Drosophila melanogaster SL-2 cells seeded at low density; assay type: cell-based
# [3] = molecular target: T1, Histone-lysine N-methyltransferase Set8 (Drosophila melanogaster, UniProt Q9VFK6); assay: Inhibition of Drosophila melanogaster PRSET2
# T1 sequence (Q9VFK6 whole entry): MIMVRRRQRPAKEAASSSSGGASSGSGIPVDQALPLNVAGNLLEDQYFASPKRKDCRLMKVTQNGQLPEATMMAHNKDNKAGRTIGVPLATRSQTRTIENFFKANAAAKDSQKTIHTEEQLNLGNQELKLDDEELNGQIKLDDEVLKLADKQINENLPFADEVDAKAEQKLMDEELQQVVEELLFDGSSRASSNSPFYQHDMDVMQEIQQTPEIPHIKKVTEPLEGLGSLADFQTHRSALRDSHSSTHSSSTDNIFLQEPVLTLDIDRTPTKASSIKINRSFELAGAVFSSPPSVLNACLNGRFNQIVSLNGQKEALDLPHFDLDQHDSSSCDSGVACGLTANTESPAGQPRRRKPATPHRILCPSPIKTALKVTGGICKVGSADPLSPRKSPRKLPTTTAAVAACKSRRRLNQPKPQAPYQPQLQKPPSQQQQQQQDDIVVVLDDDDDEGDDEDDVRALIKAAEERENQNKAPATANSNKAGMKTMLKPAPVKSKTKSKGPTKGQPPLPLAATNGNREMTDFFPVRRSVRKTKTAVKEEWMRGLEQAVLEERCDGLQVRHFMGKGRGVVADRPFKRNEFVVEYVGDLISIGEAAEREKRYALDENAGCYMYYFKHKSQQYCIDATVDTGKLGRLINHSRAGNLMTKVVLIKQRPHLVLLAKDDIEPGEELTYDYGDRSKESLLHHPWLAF
# [4] = Inhibition of Drosophila melanogaster SET7/9
# [5] = molecular target: Histone-lysine N-methyltransferase E(z) (Drosophila melanogaster, UniProt P42124); assay: Inhibition of Drosophila melanogaster histone-lysine N-methyl-transferase E(z)
# [6] = molecular target: T2, Histone-lysine N-methyltransferase EHMT2 (Mus musculus, UniProt Q9Z148); assay: Inhibition of mouse G9a
# T2 sequence (Q9Z148 whole entry): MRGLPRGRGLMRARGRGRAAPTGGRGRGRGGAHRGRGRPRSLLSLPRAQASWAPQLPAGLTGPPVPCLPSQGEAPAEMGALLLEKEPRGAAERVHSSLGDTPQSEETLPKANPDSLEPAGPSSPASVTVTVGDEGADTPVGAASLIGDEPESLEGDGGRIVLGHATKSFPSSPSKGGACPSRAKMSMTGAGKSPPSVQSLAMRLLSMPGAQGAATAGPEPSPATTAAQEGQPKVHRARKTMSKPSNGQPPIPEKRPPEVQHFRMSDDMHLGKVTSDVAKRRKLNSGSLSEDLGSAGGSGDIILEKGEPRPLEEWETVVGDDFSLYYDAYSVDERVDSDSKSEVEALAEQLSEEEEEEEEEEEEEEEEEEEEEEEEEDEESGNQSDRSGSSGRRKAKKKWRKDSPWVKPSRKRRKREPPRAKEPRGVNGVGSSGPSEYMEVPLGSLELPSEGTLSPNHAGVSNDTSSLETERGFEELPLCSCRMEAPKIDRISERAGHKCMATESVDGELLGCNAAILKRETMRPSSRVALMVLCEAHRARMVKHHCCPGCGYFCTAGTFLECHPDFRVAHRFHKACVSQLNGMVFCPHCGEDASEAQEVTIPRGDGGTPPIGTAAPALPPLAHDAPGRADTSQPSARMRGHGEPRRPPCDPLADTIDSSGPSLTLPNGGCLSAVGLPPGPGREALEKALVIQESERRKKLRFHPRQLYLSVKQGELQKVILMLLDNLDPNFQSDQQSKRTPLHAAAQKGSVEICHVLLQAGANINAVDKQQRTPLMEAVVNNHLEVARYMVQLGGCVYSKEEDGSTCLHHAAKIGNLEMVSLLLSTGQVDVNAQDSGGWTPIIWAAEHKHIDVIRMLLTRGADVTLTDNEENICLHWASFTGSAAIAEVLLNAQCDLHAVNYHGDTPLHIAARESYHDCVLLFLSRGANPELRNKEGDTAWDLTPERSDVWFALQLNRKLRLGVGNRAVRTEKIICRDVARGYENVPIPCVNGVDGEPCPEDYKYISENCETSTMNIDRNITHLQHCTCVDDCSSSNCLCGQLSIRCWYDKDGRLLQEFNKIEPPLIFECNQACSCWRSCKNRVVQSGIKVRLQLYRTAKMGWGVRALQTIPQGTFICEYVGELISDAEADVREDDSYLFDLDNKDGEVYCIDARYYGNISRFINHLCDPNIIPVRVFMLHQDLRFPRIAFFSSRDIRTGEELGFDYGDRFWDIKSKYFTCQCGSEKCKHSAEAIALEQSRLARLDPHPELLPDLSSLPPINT
# [7] = molecular target: T3, Histone-lysine N-methyltransferase, H3 lysine-9 specific dim-5 (Neurospora crassa, UniProt Q8X225); assay: Inhibition of Neurospora crassa DIM5
# T3 sequence (Q8X225 whole entry): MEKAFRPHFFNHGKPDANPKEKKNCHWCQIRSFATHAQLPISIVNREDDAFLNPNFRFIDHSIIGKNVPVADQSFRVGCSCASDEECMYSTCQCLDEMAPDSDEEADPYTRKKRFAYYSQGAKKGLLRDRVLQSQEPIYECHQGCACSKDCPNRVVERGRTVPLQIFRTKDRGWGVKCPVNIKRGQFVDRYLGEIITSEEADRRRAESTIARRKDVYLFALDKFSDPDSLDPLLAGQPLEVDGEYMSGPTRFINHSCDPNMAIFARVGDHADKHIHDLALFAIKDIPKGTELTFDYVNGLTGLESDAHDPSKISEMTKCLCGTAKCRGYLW
# [8] = Inhibition of human SU(VAR)3-9
# [9] = molecular target: Histone-lysine N-methyltransferase Su(var)3-9 (Drosophila melanogaster, UniProt P45975); assay: Inhibition of Drosophila melanogaster SU(VAR)3-9
# [10] = molecular target: Histone-lysine N-methyltransferase Su(var)3-9 (Drosophila melanogaster) (UniProt P45975); conditions: SL2, 0.5 uM
# Description: Inhibition of SU(VAR)3-9 in Drosophila melanogaster SL2 cells assessed as inhibition of methylation at Lys36 in Histone H3 at 0.5 uM by MALDI-TOF MS
# [11] = molecular target: Histone-lysine N-methyltransferase Su(var)3-9 (Drosophila melanogaster) (UniProt P45975); conditions: SL2, 0.5 uM; remark: listed apart in the source
# Description: Inhibition of SU(VAR)3-9 in Drosophila melanogaster SL2 cells assessed as inhibition of methylation at Lys27 in Histone H3 at 0.5 uM by MALDI-TOF MS
# [12] = molecular target: Histone-lysine N-methyltransferase Su(var)3-9 (Drosophila melanogaster) (UniProt P45975); conditions: SL2, 0.5 uM; remark: listed apart in the source
# Description: Inhibition of SU(VAR)3-9 in Drosophila melanogaster SL2 cells assessed as inhibition of methylation at Lys4in Histone H3 at 0.5 uM by Western blot method
# [13] = molecular target: Histone-lysine N-methyltransferase Su(var)3-9 (Drosophila melanogaster) (UniProt P45975); conditions: SL2, 0.5 uM; remark: listed apart in the source
# Description: Inhibition of SU(VAR)3-9 in Drosophila melanogaster SL2 cells assessed as inhibition of methylation at Lys79in Histone H3 at 0.5 uM by Western blot method
# [14] = molecular target: Histone-lysine N-methyltransferase Su(var)3-9 (Drosophila melanogaster) (UniProt P45975); conditions: SL2, 0.5 uM; remark: listed apart in the source
# Description: Inhibition of SU(VAR)3-9 in Drosophila melanogaster SL2 cells assessed as inhibition of methylation at Lys36 in Histone H3 at 0.5 uM by Western blot method
# [15] = molecular target: Histone-lysine N-methyltransferase Su(var)3-9 (Drosophila melanogaster) (UniProt P45975); conditions: SL2, 0.5 uM; remark: listed apart in the source
# Description: Inhibition of SU(VAR)3-9 in Drosophila melanogaster SL2 cells assessed as inhibition of methylation at Lys27 in Histone H3 at 0.5 uM by Western blot method
# [16] = molecular target: Histone-lysine N-methyltransferase Su(var)3-9 (Drosophila melanogaster) (UniProt P45975); conditions: SL2, 0.5 uM; remark: listed apart in the source
# Description: Inhibition of SU(VAR)3-9 in Drosophila melanogaster SL2 cells assessed as reduction of H3K9me3 at 0.5 uM by immunostaining method
# [17] = molecular target: Histone-lysine N-methyltransferase Su(var)3-9 (Drosophila melanogaster) (UniProt P45975); conditions: SL2, 0.1 uM
# Description: Inhibition of SU(VAR)3-9 in Drosophila melanogaster SL2 cells assessed as reduction of H3K9me2 at 0.1 uM after 5 days by MALDI-TOF MS seeded at 2.5 million cells/ml density
# [18] = molecular target: Histone-lysine N-methyltransferase Su(var)3-9 (Drosophila melanogaster) (UniProt P45975); conditions: SL2, 0.5 uM; remark: listed apart in the source
# Description: Inhibition of SU(VAR)3-9 in Drosophila melanogaster SL2 cells assessed as reduction of H3K9me2 at 0.5 uM after 5 days by MALDI-TOF MS seeded at 2.5 million cells/ml density
# [19] = molecular target: Histone-lysine N-methyltransferase Su(var)3-9 (Drosophila melanogaster) (UniProt P45975); conditions: SL2, 0.5 uM; remark: listed apart in the source
# Description: Inhibition of SU(VAR)3-9 in Drosophila melanogaster SL2 cells assessed as inhibition of methylation at Lys79in Histone H3 at 0.5 uM by MALDI-TOF MS
# [20] = molecular target: Histone-lysine N-methyltransferase Su(var)3-9 (Drosophila melanogaster) (UniProt P45975); conditions: SL2, 0.5 uM; remark: listed apart in the source
# Description: Inhibition of SU(VAR)3-9 in Drosophila melanogaster SL2 cells assessed as inhibition of methylation at Lys4in Histone H3 at 0.5 uM by MALDI-TOF MS
# Sequence of Histone-lysine N-methyltransferase Su(var)3-9 (Drosophila melanogaster) (P45975 whole entry): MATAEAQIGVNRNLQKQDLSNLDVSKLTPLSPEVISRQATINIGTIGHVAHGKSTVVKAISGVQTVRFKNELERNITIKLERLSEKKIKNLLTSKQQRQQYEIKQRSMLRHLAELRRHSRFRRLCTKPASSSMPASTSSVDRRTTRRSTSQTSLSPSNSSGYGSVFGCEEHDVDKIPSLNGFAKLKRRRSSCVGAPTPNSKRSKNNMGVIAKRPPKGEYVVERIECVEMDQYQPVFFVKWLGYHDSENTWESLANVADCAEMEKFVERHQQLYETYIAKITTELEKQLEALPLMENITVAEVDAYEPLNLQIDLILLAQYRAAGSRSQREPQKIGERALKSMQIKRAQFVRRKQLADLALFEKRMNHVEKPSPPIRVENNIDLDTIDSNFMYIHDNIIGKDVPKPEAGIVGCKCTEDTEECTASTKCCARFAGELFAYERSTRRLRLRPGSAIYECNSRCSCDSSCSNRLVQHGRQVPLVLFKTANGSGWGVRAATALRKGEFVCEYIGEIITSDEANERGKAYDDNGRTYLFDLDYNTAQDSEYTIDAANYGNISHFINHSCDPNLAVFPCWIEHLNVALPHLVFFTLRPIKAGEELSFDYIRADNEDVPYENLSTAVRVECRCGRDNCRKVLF
# Sequence of Histone-lysine N-methyltransferase E(z) (P42124 whole entry): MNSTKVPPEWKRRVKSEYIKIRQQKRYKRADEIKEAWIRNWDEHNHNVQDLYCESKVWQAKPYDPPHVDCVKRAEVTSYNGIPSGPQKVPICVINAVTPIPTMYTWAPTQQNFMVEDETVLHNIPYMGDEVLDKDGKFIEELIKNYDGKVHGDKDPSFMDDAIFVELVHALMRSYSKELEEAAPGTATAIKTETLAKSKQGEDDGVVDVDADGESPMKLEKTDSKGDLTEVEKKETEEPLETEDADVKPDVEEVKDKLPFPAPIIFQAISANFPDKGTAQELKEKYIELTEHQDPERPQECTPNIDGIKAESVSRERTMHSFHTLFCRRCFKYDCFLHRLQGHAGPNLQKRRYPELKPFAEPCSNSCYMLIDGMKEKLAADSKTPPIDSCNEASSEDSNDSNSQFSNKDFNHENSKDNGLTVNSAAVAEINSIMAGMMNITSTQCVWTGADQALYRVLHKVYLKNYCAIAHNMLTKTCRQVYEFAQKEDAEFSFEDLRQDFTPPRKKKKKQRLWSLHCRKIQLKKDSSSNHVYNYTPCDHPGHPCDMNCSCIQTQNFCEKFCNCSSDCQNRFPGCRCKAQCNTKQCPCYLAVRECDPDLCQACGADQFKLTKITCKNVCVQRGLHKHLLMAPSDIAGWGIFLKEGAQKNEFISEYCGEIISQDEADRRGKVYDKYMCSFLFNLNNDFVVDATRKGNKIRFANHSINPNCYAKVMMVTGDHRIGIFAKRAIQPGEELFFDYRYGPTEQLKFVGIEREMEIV
# Sequence of Histone-lysine N-methyltransferase Su(var)3-9 (P45975 whole entry): as the sequence (P45975 whole entry) above
structure (smiles),measurement,setting,value
CN1C(=O)[C@@]23C[C@]4([C@]56C[C@@]78SS[C@@](CO)(C(=O)N7[C@H]5Nc5ccccc56)N(C)C8=O)c5ccccc5N[C@@H]4N2C(=O)[C@]1(CO)SS3 [CHAETOCIN],Activity,SL-2 [1],Non-toxic
same,Activity,SL-2 [2],Toxic
same,IC50,[3],> 180000 nM
same,IC50,[4],> 180000 nM
same,IC50,[5],> 90000 nM
same,IC50,[6],2500 nM
same,IC50,[7],3000 nM
same,IC50,[8],800 nM
same,IC50,[9],600 nM
same,inhibition,[10],inactive
same,inhibition,[11],inactive
same,inhibition,[12],inactive
same,inhibition,[13],inactive
same,inhibition,[14],inactive
same,inhibition,[15],inactive
same,inhibition,[16],Active
same,inhibition,[17],Active
same,inhibition,[18],Active
same,inhibition,[19],inactive
same,inhibition,[20],inactive
